Measured values published in patent US20110250290A1, “DISINFECTANT COMPOSITIONS” (priority 2006, published 2011).

How the values were obtained:
[1] = test system: Pseudomonas syringae pv. phaseolicola HB-9 biofilm; assay: PspHB-9 biofilm susceptibility to Oxysilver and copper sulfate
[2] = test system: Pseudomonas syringae pv. phaseolicola HB-9 planktonic; assay: PspHB-9 planktonic susceptibility to Oxysilver and copper sulfate

## O=S(=O)([O-])[O-].[Cu+2] [Copper sulfate]
[1]; 1250 ppm
  Bacteria/biofilm growth PspHB-9 Biofilm, cell counts: 5.15 log10
[1]; 2900 ppm
  Bacteria/biofilm growth PspHB-9 Biofilm, cell counts: 0 log10
[1]; 4600 ppm
  Bacteria/biofilm growth PspHB-9 Biofilm, cell counts: 0 log10
[1]; planktonic and biofilm PspHB-9
  concentration needed to be effective: at least 11460 ppm
[2]; 1250 ppm
  Bacteria growth PspHB-9 Planktonic, cell counts: 2.95 log10
[2]; 2900 ppm
  Bacteria growth PspHB-9 Planktonic, cell counts: 0 log10
[2]; 4600 ppm
  Bacteria growth PspHB-9 Planktonic, cell counts: 0 log10
